The text below walks through data of article PMC11766273, “Design, Synthesis, Anticancer Screening, and Mechanistic Study of Spiro-N-(4-sulfamoyl-phenyl)-1,3,4-thiadiazole-2-carboxamide Derivatives” (International Journal of Molecular Sciences, 2025).

Series [1] deals with hCA XII (Homo sapiens, UniProt O43570). Set-up: method as in PMID 35671645, PMID 37577088, PMID 30978604, PMID 37776683. The following applies: printed in Figure 1 for reported compounds; cited from earlier work.
The target in series [2] is hCA IX (Homo sapiens, UniProt Q16790). Also on record: method as in PMID 35671645, PMID 37577088, PMID 30978604, PMID 37776683. The following applies: printed in Figure 1 for reported compounds; cited from earlier work.
In series [3] the test system is RXF393 cells. As to the kind of experiment: Cell cycle analysis (propidium iodide flow cytometry). As to conditions: RXF393 treated at IC50.
Protocol: The impact of the target compound on cell cycle progression in the RXF393 cancer cell line was evaluated against doxorubicin as a positive control and untreated RXF393 as a negative control, utilizing a flow cytometry assay.
was assessed utilizing the Propidium Iodide Flow Cytometry Kit to quantify DNA
content following established protocols.
RXF393 cells were treated with the IC50 concentration of the target compound
Series [4] in a line: in vitro. The following applies: human, WI 38 normal cells.
Protocol: (§1) The growth percentage was calculated at different drug concentration
levels and at different times.
(§2) and WI 38 cell lines was determined utilizing established MTT test procedures.
(§3) All cell lines utilized were acquired from the Vacsera Cell Culture Library, Tissue
(§4) Culture Unit, Cairo, Egypt, with ATCC provenance.
(§5) concentrations that inhibited 50% of cell growth were tested three times, and the mean
(§6) was computed. Cells were grown in DMEM (Invitrogen/Life Technologies) augmented
(§7) with 10% FBS (Hyclone), 10 mg/ml of insulin (Sigma), and 1% penicillin-streptomycin.
(§8) Seed cells (density 1.2–1.8×10,000 cells/well) in 100 mL of complete growth medium and
(§9) 100 mL of the tested chemical per well in a 96-well plate for 24 h before the MTT testing.
(§10) In a standard experiment, 100 mL of serially diluted sterile testing substances were
(§11) introduced to achieve final concentrations ranging from 0.01 to 100 mM, utilizing
(§12) growth media as a negative control. Following 24 h of culture incubation, the
(§13) supernatants were discarded. The LOX IMVI, HT29, and RXF393 cell lines were
(§14) subjected to trypsinization and rinsed with calcium/magnesium-free PBS (pH 7.2). We
(§15) transferred cultures from the incubator to a laminar flow hood or sterile workspace.
(§16) Each test must incorporate a blank, providing complete media
(§17) balanced salt solution devoid of phenol red and serum. Incorporate reconstituted MTT
(§18) at a volume constituting 10% of the culture medium—re-incubate cultures for 2 to 4 h,
(§19) contingent upon cell type and optimal cell density. Upon completion of the incubation
(§20) period, the cultures from the incubator are extracted, and the resultant formazan
(§21) crystals are dissolved by adding an equivalent volume of MTT Solubilization Solution
Absorbance was spectrophotometrically
(§22) measured at a wavelength of 570 nm. Quantify the background absorbance of multi-
(§23) well plates at 690 nm and deduct this value from the data at 450 nm. Data from all
(§24) experiments were documented, and the viability percentage of cells was computed.
Series [5] concerns renal RXF393 cancer cell line. As to the kind of experiment: MTT cell viability assay. The following applies: for % viability: rxf393. For orientation: Tetrazolium dyes change colour on reduction, which living cells bring about.
Protocol: as §1
levels and at different times.
as §2, §3, §4, §5, §6, §7, §8, §9, §10, §11, §12, §13, §14, §15, §16, §17, §18, §19, §20, §21
Absorbance was spectrophotometrically
as §22, §23, §24
Series [6] concerns renal RXF393 cell line. As to the kind of experiment: Apoptosis assay (Annexin V-FITC/PI). It counts as cell-based, human. As to conditions: RXF393 treated at IC50.
Series [7] deals with colon HT29 cancer cell line. As to the kind of experiment: MTT cell viability assay.
Protocol: as §1
levels and at different times.
as §2, §3, §4, §5, §6, §7, §8, §9, §10, §11, §12, §13, §14, §15, §16, §17, §18, §19, §20, §21
Absorbance was spectrophotometrically
as §22, §23, §24
The subject of series [8] is melanoma LOX IMVI cancer cell line. In words: MTT cell viability assay. As to conditions: for % viability: LOXIMVI.
Protocol: as §1
levels and at different times.
as §2, §3, §4, §5, §6, §7, §8, §9, §10, §11, §12, §13, §14, §15, §16, §17, §18, §19, §20, §21
Absorbance was spectrophotometrically
as §22, §23, §24

Sequence of hCA XII (O43570 25-354): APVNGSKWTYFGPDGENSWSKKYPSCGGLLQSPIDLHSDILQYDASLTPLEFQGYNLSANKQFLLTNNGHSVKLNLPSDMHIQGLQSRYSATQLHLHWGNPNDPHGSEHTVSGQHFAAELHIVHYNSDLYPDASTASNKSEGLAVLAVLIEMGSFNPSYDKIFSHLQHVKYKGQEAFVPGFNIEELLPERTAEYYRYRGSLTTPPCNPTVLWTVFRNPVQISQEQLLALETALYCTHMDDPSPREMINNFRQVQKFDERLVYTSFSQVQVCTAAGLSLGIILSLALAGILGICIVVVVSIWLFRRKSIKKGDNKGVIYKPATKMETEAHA

As for `NS(=O)(=O)c1ccc(NC(=O)Nc2ncc(-c3ccc(F)cc3)s2)cc1` [Compound I], the Ki in series [1] is 0.0276 µM; in series [2], 0.0136 µM.

As for `COc1cccc2c1C(=O)c1c(O)c3c(c(O)c1C2=O)C[C@@](O)(C(=O)CO)C[C@@H]3O[C@H]1C[C@H](N)[C@H](O)[C@H](C)O1` [Doxorubicin, doxorubicin, reference compound], the “DNA Content %G2/M” value in series [3] (DMSO control 19.51) stood at 11.01%. In addition, the “DNA Content %S” value in series [3] (DMSO control 28.54) is 16.81%. Also, the “DNA Content %G0-G1” value in series [3] (DMSO control 51.95) amounted to 72.18%. In series [4], this compound had an IC50 at 24 h of 18.1 ± 0.59 µM. Also, in series [4], the viability at 24 h, 0.4 µM was 74.5%. Besides, the viability at 24 h, 1.6 µM in series [4] was 63.2%. In series [4], the viability at 24 h, 6.3 µM came out at 52.4%. In series [4], the viability at 24 h, 25 µM amounted to 46.6%. The compound also gave a viability at 24 h, 100 µM in series [4] of 38.4%. The IC50 in series [5] (RXF393, MTT) was determined as 13.5 ± 0.82 µM; in series [7] (HT29) it was 13.5 ± 0.71 µM; in series [8] (LOX IMVI) it was 6.08 ± 0.32 µM. Further, in series [5] (RXF 393, Table S2), the “Cytotoxicity IC50 SD” value is 13.54 ± 0.82 µg/mL. In addition, the “% viability” value in series [5] (0.4ug, MTT) stood at 78.52%; in series [5] (1.6ug, MTT), 69.673%; in series [5] (6.25ug, MTT), 54.451%; in series [5] (25ug, MTT) it was 43.883%; in series [5] (100ug, MTT), 34.98%; in series [7] (HT-29, 0.4uM), 79.36%. The “% viability” value is reported as 68.43% in series [7] (HT-29, 1.6uM); 57.377% in series [7] (HT-29, 6.3uM); 45.5981% in series [7] (HT-29, 25uM); 31.937% in series [7] (HT-29, 100uM); 69.98% in series [8] (0.4uM); 58.61% in series [8] (1.6uM). Further, the “% viability” value came out at 49.41% in series [8] (6.3uM), 41.5165% in series [8] (25uM) and 29.521% in series [8] (100uM). The “Apoptosis Late” value in series [6] (DMSO control 0.18) is 17.36%. In series [6] (DMSO control 0.42), the “Apoptosis Early” value is 12.64%. Besides, the Necrosis in series [6] (DMSO control 1.16) is 9.02%.

What is called Ki is a measure of affinity in units of concentration, obtained from inhibition or displacement. In general, IC50 refers to the concentration that inhibits the measured activity by half. Read a low IC50 as greater potency. In general, viability refers to a per cent measure of how many cells are alive, often set against a control.
